According to US20050008751A1, “Fermented milk product” (Unilever Bestfoods, North America, priority 2001, published 2005):

What follows are substances tested on ACE (assay: ACE inhibition (IC50) of synthesized peptides).
Assay type: biochemical
Protocol: The ACE inhibition activity was assayed according to the method 15 of Matsui et al. (Matsui, T. et al. (1992) Biosci. Biotech. Biochem. 56: 517-518) with the modifications described below.
For each sample 75 μl 3 mM hippuryl histidine leucine (Hip-His-Leu, Sigma chemicals Co.; the chemical was dissolved in 250 mM Borate containing 200 mM NaCl, pH 8.3); 20 μl 0.1 U/ml ACE (obtained at Sigma) or H2 O, and 25 μl sample or H2O were mixed (see Table 1). The mixtures were incubated at 37° C. and stopped after 30 min by adding 125 μl 0.5 M HCl. Subsequently, 225 μl bicine/NaOH solution (1 M NaOH : 0.25 M bicine (4:6)) was added, followed by […] 0.1 M TNBS (2,4,6-Trinitrobenzenesulfonic acid, Fluka, Switzerland; in 0.1 M Na2HPO4). After incubation for 20 min. at 37° C., 4 ml 4 mM Na2SO3 in 0.2 M NaH2PO4 was added and the absorbance at 416 nm was measured with UV/Vis spectrophotometer (Shimadzu UV-1601 with a CPS controller, Netherlands). The amount of ACE inhibition (ACEI) activity was calculated as a percentage of inhibition compared with the conversion rate of ACE in the absence of an inhibitor: ACEI (%) (((C1-C2)-(S1-S2))/(C1-C2))*100 (1) wherein • C1=Absorbance without ACE inhibitory component (=max. ACE activity) [AU]. • C2=Absorbance without ACE inhibitory component and without ACE (background) [AU]. • S1=Absorbance in the presence of ACE and the ACE inhibitory component [AU]. • S2=Absorbance in the presence of the ACE inhibitory component, but without ACE [AU].

IC50 [µM]	Substance
1000	KVLPVPQ [Lys-Val-Leu-Pro-Val-Pro-Gln]
250	Leu-Pro-Val-Pro (LPVP; printed: Leu-Pro-Val-Pro)
> 1000	Leu-Pro-Val [LPV]
> 1000	Leu-Pro [LP]

Substance	IC50 [µM]
KVLPVP [Lys-Val-Leu-Pro-Val-Pro]	5
Val-Leu-Pro [VLP]	120
